Reference: the supplement of paper PMC10627819

Key:
[1] = system: S. aureus Newman; experiment: Bliss interaction score (quartile over a dose matrix) (fitness difference); higher = more antagonism (negative = synergy)
Method in brief: (§1)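 Each plate was normalised to the robust mean of its own no-drug wells, using OD595 at entry into stationary phase, with values capped at 1. This normalised growth is the fitness value. The Bliss score is the difference between observed and product-expected fitness, with single-drug fitness inferred from the combination data and quartiles taken over technical, biological and donor/recipient replicates.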

[2] = system: S. aureus DSM 20231; experiment: as above
Method in brief: as §1

[3] = system: S. pneumoniae D39V; experiment: as above
Method in brief: as §1

[4] = system: B. subtilis 168; experiment: as above
Method in brief: as §1

[5] = system: S. pneumoniae D39V; experiment: fitness (endpoint OD595 vs no drug) (fraction); higher = more growth
Method in brief: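 Fitness was measured as bacterial growth in 384-well plates inoculated at OD595 0.01 (30 µl, or 55 µl for S. pneumoniae). Media were TSB, LB Lennox or CY, at 37 °C. OD595 was read every 30 min for 14 h and background-subtracted against the first reading. Fitness is OD595 at the transition into stationary phase divided by the robust mean of no-drug control wells, capped at 1.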
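For Bliss interaction score (quartile over a dose matrix) in this document: first quartile when negative (synergy) and third quartile when positive (antagonism).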

Clc1ccc(COC(Cn2ccnc2)c2ccc(Cl)cc2Cl)c(Cl)c1 (stereo not given) [Miconazole] + CC1=C\[C@@H](O)CC(=O)Cc2nc(co2)C(=O)N2CCC=C2C(=O)O[C@H](C(C)C)[C@H](C)/C=C/C(=O)NC\C=C\1 [Virginiamycin M1]
Conditions | Bliss interaction score
[1] | 0.0829
[2] | 0.0731
[3] | 0.0555
[4] | 0.103

fitness, [5]
Conditions | first compound 1.073 µg/mL | first compound 1.25 µg/mL | first compound 2.145 µg/mL | first compound 2.5 µg/mL | first compound 4.29 µg/mL | first compound 5 µg/mL
partner 0.5 µg/mL | ≥ 1 | – | ≥ 1 | – | 0.882 | –
partner 1 µg/mL | ≥ 1 | – | ≥ 1 | – | ≥ 1 | –
partner 2 µg/mL | 0.983 | 0.902 | ≥ 1 | 0.903 | 0.988 | 0.879

fitness, [5], one replicate
Conditions | partner 0.15 µg/mL | partner 0.3 µg/mL | partner 0.5 µg/mL | partner 1 µg/mL
first compound 1.25 µg/mL | 0.949 | 0.905 | ≥ 1 | ≥ 1
first compound 2.5 µg/mL | 0.95 | 0.902 | ≥ 1 | ≥ 1
first compound 5 µg/mL | 0.906 | 0.904 | 0.997 | 0.891

Clc1ccc(COC(Cn2ccnc2)c2ccc(Cl)cc2Cl)c(Cl)c1 (stereo not given) [Miconazole] + CCC(C)C1C(=O)NC(=C)C(=O)NC(C(=O)NC(CSCC(C(=O)N1)NC(=O)/C(=C/C)/NC(=O)C(C(C)CC)N)C(=O)NC2C(SCC(NC(=O)CNC(=O)C3CCCN3C2=O)C(=O)NC(CCCCN)C(=O)NC4C(SCC(NC(=O)CNC(=O)C(NC(=O)C(NC(=O)C(NC(=O)CNC4=O)C)CC(C)C)CCSC)C(=O)NC(CC(=O)N)C(=O)NC(CCSC)C(=O)NC(CCCCN)C(=O)NC5C(SCC6C(=O)NC(C(=O)NC(CSC(C(C(=O)N6)NC(=O)C(NC5=O)C)C)C(=O)NC(CO)C(=O)NC(C(C)CC)C(=O)NC(CC7=CN=CN7)C(=O)NC(C(C)C)C(=O)NC(=C)C(=O)NC(CCCCN)C(=O)O)CC8=CN=CN8)C)C)C)CC(C)C [Nisin]
main component drawn
Conditions | Bliss interaction score
[1] | -0.0601
[2] | -0.0527
[3] | 0.166
[4] | 0.0476

fitness, [5], main component drawn
Conditions | first compound 1.073 µg/mL | first compound 1.25 µg/mL | first compound 2.145 µg/mL | first compound 2.5 µg/mL | first compound 4.29 µg/mL | first compound 5 µg/mL
partner 0.4275 µg/mL | – | 0.979 | – | 0.998 | – | 0.987
partner 0.855 µg/mL | – | 0.973 | – | 0.965 | – | 0.977
partner 1.6 µg/mL | 0.264 | – | 0.16 | – | 0.172 | –
partner 1.71 µg/mL | – | 0.0702 | – | 0.146 | – | 0.119
partner 3.2 µg/mL | 0.0113 | – | 0.0171 | – | 0.151 | –
partner 6.4 µg/mL | 0.0029 | – | 0.0131 | – | 0.168 | –

Clc1ccc(COC(Cn2ccnc2)c2ccc(Cl)cc2Cl)c(Cl)c1 (stereo not given) [Miconazole] + CCN(CC)CCOC(=O)c1ccc(N)cc1 [Procaine]
Conditions | Bliss interaction score
[1] | -0.0389
[2] | 0.0418
[3] | 0.0592
[4] | 0.0691

fitness, [5]
Conditions | first compound 1.073 µg/mL | first compound 2.145 µg/mL | first compound 4.29 µg/mL
partner 85.5 µg/mL | ≥ 1 | ≥ 1 | 0.936
partner 171 µg/mL | 0.993 | 0.999 | 0.899
partner 342 µg/mL | 0.997 | ≥ 1 | 0.871

fitness, [5], one replicate
Conditions | first compound 1.25 µg/mL | first compound 2.5 µg/mL | first compound 5 µg/mL
partner 85.5 µg/mL | 0.983 | ≥ 1 | ≥ 1
partner 171 µg/mL | 0.971 | 0.976 | 0.992
partner 342 µg/mL | 0.968 | 0.992 | ≥ 1

Clc1ccc(COC(Cn2ccnc2)c2ccc(Cl)cc2Cl)c(Cl)c1 (stereo not given) [Miconazole] + CN1C2=CC=CC=C2N=C3C1=CC=CC3=O [Pyocyanin]
Conditions | Bliss interaction score
[1] | 0.0548
[2] | 0.0453
[3] | 0.0535
[4] | -0.0752

fitness, [5]
Conditions | first compound 1.073 µg/mL | first compound 2.145 µg/mL | first compound 4.29 µg/mL
partner 0.325 µg/mL | ≥ 1 | ≥ 1 | ≥ 1
partner 0.65 µg/mL | 0.975 | 1 | 0.908
partner 1.3 µg/mL | 0.787 | – | 0.729

fitness, [5], one replicate
Conditions | first compound 1.25 µg/mL | first compound 2.5 µg/mL | first compound 5 µg/mL
partner 0.325 µg/mL | 0.917 | 0.916 | 0.93
partner 0.65 µg/mL | 0.963 | 0.905 | 0.907
